From ChEMBL document CHEMBL4421728, “Bach1 Inhibitors in Combination with Nrf2 Activators and Pharmaceutical Compositions Thereof” (2017)

Assays:
[1] = target: T1, Transcription regulator protein BACH1 (Homo sapiens) (UniProt O14867); test: Inhibition of Bach1 in normal human lung fibroblasts assessed as induction of HMOX protein expression by measuring HMOX positive cells level at 0.156 uM in presence of 0.03 uM Nrf2 activator DMF incubated for 16 to 18 hrs by immunostaining relative to control DMSO; set-up: scale not given: the % may be the effect or the level left
T1 sequence (whole entry): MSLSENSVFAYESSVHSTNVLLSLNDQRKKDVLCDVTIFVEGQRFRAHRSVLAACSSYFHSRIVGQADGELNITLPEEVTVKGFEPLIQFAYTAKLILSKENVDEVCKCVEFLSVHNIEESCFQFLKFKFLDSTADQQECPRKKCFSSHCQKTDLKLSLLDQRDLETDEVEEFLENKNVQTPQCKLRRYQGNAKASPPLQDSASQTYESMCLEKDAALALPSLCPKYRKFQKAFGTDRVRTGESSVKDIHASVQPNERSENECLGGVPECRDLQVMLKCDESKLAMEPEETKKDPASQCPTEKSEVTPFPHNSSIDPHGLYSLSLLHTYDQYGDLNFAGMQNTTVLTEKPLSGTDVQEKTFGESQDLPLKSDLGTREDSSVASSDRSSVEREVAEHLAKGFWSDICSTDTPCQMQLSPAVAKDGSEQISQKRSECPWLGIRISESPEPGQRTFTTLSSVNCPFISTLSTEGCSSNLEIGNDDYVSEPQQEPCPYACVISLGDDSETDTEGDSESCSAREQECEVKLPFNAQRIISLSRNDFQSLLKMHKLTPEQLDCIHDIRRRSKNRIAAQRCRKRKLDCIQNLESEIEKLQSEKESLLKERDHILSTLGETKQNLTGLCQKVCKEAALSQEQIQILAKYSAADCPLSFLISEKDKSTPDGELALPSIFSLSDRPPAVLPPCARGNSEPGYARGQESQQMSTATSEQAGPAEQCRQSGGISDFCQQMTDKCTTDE

[2] = target: T1, Transcription regulator protein BACH1 (Homo sapiens); test: Inhibition of Bach1 in normal human lung fibroblasts assessed as induction of HMOX protein expression at 0.078 uM in presence of 30 uM Nrf2 activator DMF incubated for 16 to 18 hrs by immunostaining relative to control
[3] = target: T1, Transcription regulator protein BACH1 (Homo sapiens); test: Inhibition of Bach1 in normal human lung fibroblasts assessed as induction of HMOX protein expression by measuring HMOX positive cells level at 0.156 uM in presence of 3 uM Nrf2 activator DMF incubated for 16 to 18 hrs by immunostaining relative to control DMSO; set-up: scale not given: the % may be the effect or the level left
[4] = target: T1, Transcription regulator protein BACH1 (Homo sapiens); test: Inhibition of Bach1 in normal human lung fibroblasts assessed as induction of HMOX protein expression at 0.156 uM incubated for 16 to 18 hrs by immunostaining relative to control
[5] = target: T1, Transcription regulator protein BACH1 (Homo sapiens); test: Inhibition of Bach1 in normal human lung fibroblasts assessed as induction of HMOX protein expression by measuring HMOX positive cells level at 0.039 uM in presence of 30 uM Nrf2 activator DMF incubated for 16 to 18 hrs by immunostaining relative to control DMSO; set-up: scale not given: the % may be the effect or the level left
[6] = target: T1, Transcription regulator protein BACH1 (Homo sapiens); test: Inhibition of Bach1 in normal human lung fibroblasts assessed as induction of HMOX protein expression by measuring HMOX positive cells level at 0.156 uM in presence of 10 uM Nrf2 activator DMF incubated for 16 to 18 hrs by immunostaining relative to control DMSO; set-up: scale not given: the % may be the effect or the level left
[7] = target: T1, Transcription regulator protein BACH1 (Homo sapiens); test: Inhibition of Bach1 in normal human lung fibroblasts assessed as induction of HMOX protein expression at 0.078 uM in presence of 10 uM Nrf2 activator DMF incubated for 16 to 18 hrs by immunostaining relative to control
[8] = target: T1, Transcription regulator protein BACH1 (Homo sapiens); test: Inhibition of Bach1 in normal human lung fibroblasts assessed as induction of HMOX protein expression at 0.156 uM in presence of 10 uM Nrf2 activator DMF incubated for 16 to 18 hrs by immunostaining relative to control
[9] = target: T1, Transcription regulator protein BACH1 (Homo sapiens); test: Inhibition of Bach1 in normal human lung fibroblasts assessed as induction of HMOX protein expression at 0.039 uM in presence of 0.03 uM Nrf2 activator DMF incubated for 16 to 18 hrs by immunostaining relative to control
[10] = target: T1, Transcription regulator protein BACH1 (Homo sapiens); test: Inhibition of Bach1 in normal human lung fibroblasts assessed as induction of HMOX protein expression at 0.019 uM in presence of 0.3 uM Nrf2 activator DMF incubated for 16 to 18 hrs by immunostaining relative to control
[11] = target: T1, Transcription regulator protein BACH1 (Homo sapiens); test: Inhibition of Bach1 in normal human lung fibroblasts assessed as induction of HMOX protein expression by measuring HMOX positive cells level at 0.078 uM in presence of 0.3 uM Nrf2 activator DMF incubated for 16 to 18 hrs by immunostaining relative to control DMSO; set-up: scale not given: the % may be the effect or the level left
[12] = target: T1, Transcription regulator protein BACH1 (Homo sapiens); test: Inhibition of Bach1 in normal human lung fibroblasts assessed as induction of HMOX protein expression by measuring HMOX positive cells level at 0.078 uM in presence of 30 uM Nrf2 activator DMF incubated for 16 to 18 hrs by immunostaining relative to control DMSO; set-up: scale not given: the % may be the effect or the level left
[13] = target: T1, Transcription regulator protein BACH1 (Homo sapiens); test: Inhibition of Bach1 in normal human lung fibroblasts assessed as induction of HMOX protein expression by measuring HMOX positive cells level at 0.156 uM in presence of 0.1 uM Nrf2 activator DMF incubated for 16 to 18 hrs by immunostaining relative to control DMSO; set-up: scale not given: the % may be the effect or the level left
[14] = target: T1, Transcription regulator protein BACH1 (Homo sapiens); test: Inhibition of Bach1 in normal human lung fibroblasts assessed as induction of HMOX protein expression by measuring HMOX positive cells level at 0.019 uM in presence of 30 uM Nrf2 activator DMF incubated for 16 to 18 hrs by immunostaining relative to control DMSO; set-up: scale not given: the % may be the effect or the level left
[15] = target: T1, Transcription regulator protein BACH1 (Homo sapiens); test: Inhibition of Bach1 in normal human lung fibroblasts assessed as induction of HMOX protein expression at 0.078 uM in presence of 0.03 uM Nrf2 activator DMF incubated for 16 to 18 hrs by immunostaining relative to control
[16] = target: T1, Transcription regulator protein BACH1 (Homo sapiens); test: Inhibition of Bach1 in normal human lung fibroblasts assessed as induction of HMOX protein expression at 0.078 uM in presence of 0.1 uM Nrf2 activator DMF incubated for 16 to 18 hrs by immunostaining relative to control
[17] = target: T1, Transcription regulator protein BACH1 (Homo sapiens); test: Inhibition of Bach1 in normal human lung fibroblasts assessed as induction of HMOX protein expression by measuring HMOX positive cells level at 0.019 uM in presence of 10 uM Nrf2 activator DMF incubated for 16 to 18 hrs by immunostaining relative to control DMSO; set-up: scale not given: the % may be the effect or the level left
[18] = target: T1, Transcription regulator protein BACH1 (Homo sapiens); test: Inhibition of Bach1 in normal human lung fibroblasts assessed as induction of HMOX protein expression at 0.156 uM in presence of 30 uM Nrf2 activator DMF incubated for 16 to 18 hrs by immunostaining relative to control
[19] = target: T1, Transcription regulator protein BACH1 (Homo sapiens); test: Inhibition of Bach1 in normal human lung fibroblasts assessed as induction of HMOX protein expression at 0.156 uM in presence of 3 uM Nrf2 activator DMF incubated for 16 to 18 hrs by immunostaining relative to control
[20] = target: T1, Transcription regulator protein BACH1 (Homo sapiens); test: Inhibition of Bach1 in normal human lung fibroblasts assessed as induction of HMOX protein expression at 0.156 uM in presence of 0.3 uM Nrf2 activator DMF incubated for 16 to 18 hrs by immunostaining relative to control

| Compound | Activity [1] [%] | fold change (FC) [2] | Activity [3] [%] | fold change (FC) [4] | Activity [5] [%] | Activity [6] [%] | fold change (FC) [7] | fold change (FC) [8] | fold change (FC) [9] | fold change (FC) [10] | Activity [11] [%] | Activity [12] [%] | Activity [13] [%] | Activity [14] [%] | fold change (FC) [15] | fold change (FC) [16] | Activity [17] [%] | fold change (FC) [18] | fold change (FC) [19] | fold change (FC) [20] |
| --- | --- | --- | --- | --- | --- | --- | --- | --- | --- | --- | --- | --- | --- | --- | --- | --- | --- | --- | --- | --- |
| COCCNC(=O)c1cnc2c(c1)nc(Nc1nc3ccc(OC(F)(F)F)cc3s1)n2C | 8.51 | 4.52 | 79.6 | 1.96 | 87.5 | 99.7 | 5.06 | 5.58 | 1.07 | 1.43 | 10.3 | 86.8 | 18.5 | 84.9 | 1.12 | 1.21 | 92.6 | 4.99 | 3.63 | 2.06 |
| Cn1c(Nc2nc3ccc(C(F)(F)F)cc3s2)nc2cc(C(=O)NCCOCCO)ccc21 | 92.5 | 4.8 | 99.2 | 6.46 | 91.9 | 100 | 6.52 | 7.5 | 1.81 | 1.44 | 61.5 | 91.3 | 88.2 | 84 | 2.35 | 2.87 | 96.1 | 6.18 | 7.69 | 5.17 |
| CNC(=O)c1ccc2c(c1)nc(Nc1nc3ccc(OC(F)(F)F)cc3s1)n2C | – | – | – | 3.46 | – | – | – | – | – | – | – | – | – | – | – | – | – | – | – | – |
| CN(C)C(=O)CNC(=O)c1ccc2c(c1)nc(Nc1nc3ccc(C(F)(F)F)cc3s1)n2C | 22.1 | 6.18 | 89 | 2.66 | 90.4 | 100 | 6.46 | 6.55 | 1.28 | 1.24 | 16.2 | 96.2 | 33.1 | 84.2 | 1.37 | 1.48 | 94.2 | 5.49 | 4.57 | 3.06 |
